Experimental data published in patent US20170239289A1, “TREATMENT OF INFLAMMATION, RESPIRATORY TRACT INFECTIONS AND CYSTIC FIBROSIS” (Advanced Inhalation Therapies (AIT) Ltd., priority 2014, published 2017).
Entries after “also recorded” stand apart in the source; their conditions may differ.

Experiments:
Achromobacter spp. = experiment: Example 4: bacterial and fungal sputum load; assay type: in vivo
Procedure: (§1) In addition to their standard care, subjects were administered three 30-minute inhalations per day of 160 ppm NO (with O2/air) for 10 working days (i.e., 5 days on treatment, 2 days off treatment, 5 days on treatment, for a total of 10 treatment days and 30 inhalations).
(§2) Secondary Endpoints—Efficacy: • Comparison of FEV1 improvement before and after NO treatment Observational Endpoints: • To determine the reduction in bacterial and fungal sputum load during each week of NO treatment compared to bacterial sputum load before NO treatment • Assess the improvement of lung function indices during and after NO intermittent inhalation treatment as determined by spirometry (i.e., FVC, FEV1, FEV1/FVC, forced expiratory flow 25% to 75% (FEF 25-75)) • Evaluate C-reactive protein (CRP) levels over time • Number of subjects with study drug related bleeding at any time point
(§3) Results of the bacterial and fungal sputum load analysis were highly variable, and due to limitations of the sampling and testing technique, must be interpreted with caution. Microbiology results were recorded from Day 1 to end of follow-up, for all samples taken during the study. In order for NO therapy to be efficient, a minimal exposure of the microbial population to NO for the whole duration of the study is required. […] Thus, data was analyzed only for cultures with positive results on Day 1. Furthermore, samples from 2 subjects (SO-01 and SO-02) were not analyzed by the central laboratory. A summary of the bacterial and fungal sputum results at Day 1 and Day 9 is presented according to subject in Table 18.

Aspergillus fumigatus = experiment: Example 4: bacterial and fungal sputum load; assay type: in vivo
Procedure: as §1, §2, §3

Total P. aeruginosa = experiment: Example 4: bacterial and fungal sputum load; assay type: in vivo
Procedure: as §1, §2, §3

Non-Mucoid P. aeruginosa = experiment: Example 4: bacterial and fungal sputum load; assay type: in vivo
Procedure: as §1, §2, §3

[1] = test system: human subjects diagnosed with, or suffering from CF; experiment: Example 1: open-label Phase 2 CF study, 160 ppm NO 30 min 3x daily, 5 days/week, 2 weeks; safety monitoring; assay type: in vivo
Procedure: NO was administered via inhalation to nine clinically stable human subjects diagnosed with, or suffering from CF from two medical centers. Patients received three daily 30-minute treatments of 160 ppm NO with at least 3.5 hours between treatments, for 5 days per week over a two-weeks time period.
Safety parameters, including NO and nitrogen dioxide (NO2 via NO2^−/NO3^−) concentrations, inhaled fraction of inspired oxygen (FiO2), methemoglobin level (SpMet, or “% MetHb”), and oxyhemoglobin (oxygen) saturation (SpO2 or SaO2), were continuously monitored using a noninvasive pulse-oximetry device RAD-57™ or RAD-87™ by Masimo Irvine, Calif. These devices also monitor Perfusion Index (PI), Respiration Rate (RRa), Total Hemoglobin (SpHb), Carboxyhemoglobin (SpCO), Oxygen Content (SpOC) and Pleth Variability Index (PVI®). Vital signs, including blood pressure, pulse, and respiratory rate were also closely monitored.

S. aureus (MSSA) = experiment: Example 4: bacterial and fungal sputum load; assay type: in vivo, Staphylococcus aureus
Procedure: as §1, §2, §3

[2] = test system: human subjects diagnosed with acute bronchiolitis; experiment: Example 3: randomized bronchiolitis study, infants 2-12 months; 160 ppm NO 30 min 5x daily up to 5 days plus O2 vs O2 alone; safety and tolerability; assay type: in vivo
From the text: Eligible subjects were randomized (1:1) to receive intermittent NO and standard treatment with O2 (hereafter referred to as NO treatment) or standard treatment with O2 (hereafter referred to as standard treatment) alone for a treatment period of up to 5 days. During treatment, MetHb and O2 saturation levels were continuously monitored using a dedicated monitor.
In addition to standard supportive O2 treatment which was initiated prior to randomization, subjects in the NO group were given five 30 minute inhalations per day of 160 ppm NO, at intervals of 3 to 4 hours, until subject improvement led to a physician decision of fit to discharge, to a maximum of 25 inhalations over 5 consecutive days. Inhalations were administered via hospital face masks (Hospiltak, Unomedical Inc).
All subjects in the control group were managed with standard supportive O2 treatment in the same way as the active treatment group, but without actual NO administration.
Methemoglobin and O2 saturation levels were also continuously monitored using a dedicated monitor. In the event of MetHb>5% or O2 saturation less than 89%, treatment was temporarily discontinued, and measurement repeated 30 minutes later. If value(s) had returned to within the safety threshold, the next inhalation was started according to protocol. In any case of a second episode of MeHb greater than 5%, study treatment was to be permanently discontinued.
Primary Endpoints—Safety and Tolerability: • Safety: • Determine the MetHb percentage associated with inhaled NO • Determine AEs associated with inhaled NO • Tolerability: • Proportion of subjects (%) who prematurely discontinued the study or study treatment for any reason • Proportion of subjects (%) who prematurely discontinued the study treatment due to AEs

[N]=O [NO, nitric oxide]
Achromobacter spp., % change from Day 1 to Day 9 (Achromobacter spp.; Subject SC-03): −94.3%
Achromobacter spp. sputum load (Achromobacter spp.; Subject SC-03, Day 1): 44.1 CFU/mL × 10^−4
Achromobacter spp. sputum load (Achromobacter spp.; Subject SC-03, Day 9): 2.50 CFU/mL × 10^−4
Aspergillus fumigatus, % change from Day 1 to Day 9 (Aspergillus fumigatus; Subject SC-03): −100.0%
Aspergillus fumigatus sputum load (Aspergillus fumigatus; Subject SC-03, Day 1): 2.00 CFU/mL × 10^−4
Aspergillus fumigatus sputum load (Aspergillus fumigatus; Subject SC-03, Day 9): 0 CFU/mL × 10^−4
Total P. aeruginosa (central lab only), % change from Day 1 to Day 9 (Total P. aeruginosa; Subject SC-01): −3.7%
Total P. aeruginosa (including Soroka lab), % change from Day 1 to Day 9 (Total P. aeruginosa; Subject SC-01): −3.7%
Total P. aeruginosa (central lab only) sputum load (Total P. aeruginosa; Subject SC-01, Day 1): 2,700 CFU/mL × 10^−4
Total P. aeruginosa (including Soroka lab) sputum load (Total P. aeruginosa; Subject SC-01, Day 1): 2,700 CFU/mL × 10^−4
Total P. aeruginosa (central lab only) sputum load (Total P. aeruginosa; Subject SC-01, Day 9): 2,600 CFU/mL × 10^−4
Total P. aeruginosa (including Soroka lab) sputum load (Total P. aeruginosa; Subject SC-01, Day 9): 2,600 CFU/mL × 10^−4
Total P. aeruginosa (central lab only), % change from Day 1 to Day 9 (Total P. aeruginosa; Subject SC-02): +33.1%
Total P. aeruginosa (including Soroka lab), % change from Day 1 to Day 9 (Total P. aeruginosa; Subject SC-02): +33.1%
Total P. aeruginosa (central lab only) sputum load (Total P. aeruginosa; Subject SC-02, Day 1): 496 CFU/mL × 10^−4
Total P. aeruginosa (including Soroka lab) sputum load (Total P. aeruginosa; Subject SC-02, Day 1): 496 CFU/mL × 10^−4
Total P. aeruginosa (central lab only) sputum load (Total P. aeruginosa; Subject SC-02, Day 9): 660 CFU/mL × 10^−4
Total P. aeruginosa (including Soroka lab) sputum load (Total P. aeruginosa; Subject SC-02, Day 9): 660 CFU/mL × 10^−4
Total P. aeruginosa (central lab only), % change from Day 1 to Day 9 (Total P. aeruginosa; Subject SC-04): −57.9%
Total P. aeruginosa (including Soroka lab), % change from Day 1 to Day 9 (Total P. aeruginosa; Subject SC-04): −57.9%
Total P. aeruginosa (central lab only) sputum load (Total P. aeruginosa; Subject SC-04, Day 1): 80,000 CFU/mL × 10^−4
Total P. aeruginosa (including Soroka lab) sputum load (Total P. aeruginosa; Subject SC-04, Day 1): 80,000 CFU/mL × 10^−4
Total P. aeruginosa (central lab only) sputum load (Total P. aeruginosa; Subject SC-04, Day 9): 33,700 CFU/mL × 10^−4
Total P. aeruginosa (including Soroka lab) sputum load (Total P. aeruginosa; Subject SC-04, Day 9): 33,700 CFU/mL × 10^−4
Total P. aeruginosa (central lab only), % change from Day 1 to Day 9 (Total P. aeruginosa; Subject SC-05): −90.2%
Total P. aeruginosa (including Soroka lab), % change from Day 1 to Day 9 (Total P. aeruginosa; Subject SC-05): −90.2%
Total P. aeruginosa (central lab only) sputum load (Total P. aeruginosa; Subject SC-05, Day 1): 32,100 CFU/mL × 10^−4
Total P. aeruginosa (including Soroka lab) sputum load (Total P. aeruginosa; Subject SC-05, Day 1): 32,100 CFU/mL × 10^−4
Total P. aeruginosa (central lab only) sputum load (Total P. aeruginosa; Subject SC-05, Day 9): 3,140 CFU/mL × 10^−4
Total P. aeruginosa (including Soroka lab) sputum load (Total P. aeruginosa; Subject SC-05, Day 9): 3,140 CFU/mL × 10^−4
Total P. aeruginosa (including Soroka lab), % change from Day 1 to Day 9 (Total P. aeruginosa; Subject SO01): +611%
Total P. aeruginosa (including Soroka lab) sputum load (Total P. aeruginosa; Subject SO01, Day 1): 450 CFU/mL × 10^−4
Total P. aeruginosa (including Soroka lab) sputum load (Total P. aeruginosa; Subject SO01, Day 9): 3,200 CFU/mL × 10^−4
Total P. aeruginosa (including Soroka lab), % change from Day 1 to Day 9 (Total P. aeruginosa; Subject SO02): +250%
Total P. aeruginosa (including Soroka lab) sputum load (Total P. aeruginosa; Subject SO02, Day 1): 100 CFU/mL × 10^−4
Total P. aeruginosa (including Soroka lab) sputum load (Total P. aeruginosa; Subject SO02, Day 9): 350 CFU/mL × 10^−4
Non-Mucoid P. aeruginosa, % change from Day 1 to Day 9 (Non-Mucoid P. aeruginosa; Subject SC-02): +33.1%
Non-Mucoid P. aeruginosa sputum load (Non-Mucoid P. aeruginosa; Subject SC-02, Day 1): 496 CFU/mL × 10^−4
Non-Mucoid P. aeruginosa sputum load (Non-Mucoid P. aeruginosa; Subject SC-02, Day 9): 660 CFU/mL × 10^−4
Non-Mucoid P. aeruginosa, % change from Day 1 to Day 9 (Non-Mucoid P. aeruginosa; Subject SC-04): −57.9%
Non-Mucoid P. aeruginosa sputum load (Non-Mucoid P. aeruginosa; Subject SC-04, Day 1): 80,000 CFU/mL × 10^−4
Non-Mucoid P. aeruginosa sputum load (Non-Mucoid P. aeruginosa; Subject SC-04, Day 9): 33,700 CFU/mL × 10^−4
Non-Mucoid P. aeruginosa, % change from Day 1 to Day 9 (Non-Mucoid P. aeruginosa; Subject SC-05): −89.3%
Non-Mucoid P. aeruginosa sputum load (Non-Mucoid P. aeruginosa; Subject SC-05, Day 1): 29,200 CFU/mL × 10^−4
Non-Mucoid P. aeruginosa sputum load (Non-Mucoid P. aeruginosa; Subject SC-05, Day 9): 3,110 CFU/mL × 10^−4
Average MetHb levels post treatment (mean±SD) ([1]; 9 subjects, 10 days of treatment): 2.4%
Oxygen saturation post treatment ([1]; all 9 subjects): more than 92%
MetHb levels throughout the trial (safety limit) ([1]; all subjects): < 5%
Changes in vital signs ([1]; during the study): no clinically significant changes in vital signs
Serious adverse events ([1]; during the study): No serious adverse events
S. aureus (MSSA), % change from Day 1 to Day 9 (S. aureus (MSSA); Subject SC-03): −100.0%
S. aureus (MSSA) sputum load (S. aureus (MSSA); Subject SC-03, Day 1): 29.5 CFU/mL × 10^−4
S. aureus (MSSA) sputum load (S. aureus (MSSA); Subject SC-03, Day 9): 0 CFU/mL × 10^−4
S. aureus (MSSA), % change from Day 1 to Day 9 (S. aureus (MSSA); Subject SO03): +27.6%
S. aureus (MSSA) sputum load (S. aureus (MSSA); Subject SO03, Day 1): 67.0 CFU/mL × 10^−4
S. aureus (MSSA) sputum load (S. aureus (MSSA); Subject SO03, Day 9): 85.5 CFU/mL × 10^−4
Time for MetHb to approach pre-treatment levels ([2]; after end of 30 min treatment): approximately 3 hours
Completed entire treatment and study duration, % of subjects ([2]; all randomized): 90.5%
Early discontinuation of study ([2]; all randomized): (0.0%)
Early discontinuation of study, withdrawal of consent ([2]; all randomized): (0.0%)
Early discontinuation of treatment due to AE ([2]; all randomized): (4.8%)^(1)
Early discontinuation of treatment due to SAE ([2]; all randomized): (0.0%)
Early discontinuation of treatment only ([2]; all randomized): (9.5%)
Early discontinuation of treatment, Physician/Investigator decision ([2]; all randomized): (4.8%)^(3)
Subjects that discontinued study treatment or discontinued the study ([2]; all randomized): (9.5%)
Completed entire treatment and study duration, % of subjects ([2]; all randomized, listed as NO and Standard Treatment (O2)): (90.5%)
Subjects with any MetHb measurement greater than 5% ([2]; during the study treatment period): 28.6%
Serious adverse events reported by ([2]; human, in vivo, 160 ppm): 4 subjects
Subjects reporting at least 1 AE ([2]; human, in vivo, 160 ppm): 47.6%
Deaths during the study ([2]; in vivo): no deaths
maximum MetHb ([2]; one subject (Subject 44)): 5.6%
Cumulative effect on MetHb levels ([2]; over the study treatment period): no “cumulative” effect; also recorded: no cumulative effect
